The values that follow come from PubChem BioAssay AID296 (DTP/NCI, 2004).

The test system of this assay is MX-1 breast xenograft, nude mice, tumor weight T/C. The assay is described as follows: NCI In Vivo Anticancer Drug Screen. Data for tumor model Human Mammary Carcinoma MX-1 Xenograft (intrarenal inoculation) in NU/NU Swiss (nude) mice. Particulars: endpoint: mean tumor weight change, higher = larger tumour. As for the experimental part:
The antitumor activity of compounds was measured in mice bearing transplantable tumors. Survival or tumor size were measured and the results are expressed as the measurement made in the treated group (T) divided by the measurement made in the vehicle treated control group (C). The tumor model used in this assay is Human Mammary Carcinoma MX-1 Xenograft (intrarenal inoculation) in NU/NU Swiss (nude) mice

[1] abbreviates: dose: 37.5 mg/kg/injection, schedule: Q04DX003 (sc), vehicle: saline.
Setting [2] is: dose: 75.0 mg/kg/injection, schedule: Q04DX003 (sc), vehicle: saline.
[3] abbreviates: dose: 150.0 mg/kg/injection, schedule: Q04DX003 (sc), vehicle: saline.
The mark [4] stands for this setting: dose: 300.0 mg/kg/injection, schedule: Q04DX003 (sc), vehicle: suspension in saline.
[5] abbreviates: dose: 600.0 mg/kg/injection, schedule: Q04DX003 (sc), vehicle: suspension in saline.
Setting [6] is: dose: 300.0 mg/kg/injection, schedule: Q04DX003 (sc), vehicle: Klucel (hydroxypropylcellulose) (HPC).
The mark [7] stands for this setting: dose: 600.0 mg/kg/injection, schedule: Q04DX003 (sc), vehicle: Klucel (hydroxypropylcellulose) (HPC).
Setting [8] is: dose: 1200.0 mg/kg/injection, schedule: Q04DX003 (sc), vehicle: Klucel (hydroxypropylcellulose) (HPC).
[9] abbreviates: dose: 2400.0 mg/kg/injection, schedule: Q04DX003 (sc), vehicle: Klucel (hydroxypropylcellulose) (HPC).

Several values for one entry are separate records, joined by “and”; a condition that tells them apart may be missing. Identical values can stand only once. Records with an inconclusive call do not appear.

Turning to `Cc1c(N)nc([C@H](CC(N)=O)NC[C@H](N)C(N)=O)nc1C(=O)N[C@H](C(=O)N[C@H](C)[C@@H](O)[C@H](C)C(=O)N[C@H](C(=O)NCCc1nc(-c2nc(C(=O)NCCC[S+](C)C)cs2)cs1)[C@@H](C)O)C(OC1OC(CO)C(O)C(O)C1OC1OC(CO)C(O)C(OC(N)=O)C1O)c1cnc[nH]1` (stereo not given in full), the T/C (dose: 4.0 mg/kg/injection, schedule: Q01DX010 (ip), vehicle: saline) is 86 % of control; the T/C (dose: 6.25 mg/kg/injection, schedule: Q04DX003 (sc), vehicle: saline) was 93 % of control; the T/C (dose: 8.0 mg/kg/injection, schedule: Q01DX010 (ip), vehicle: saline) was 55 % of control; the T/C (dose: 8.0 mg/kg/injection, schedule: Q04DX003 (sc), vehicle: saline) is 87 % of control; the T/C (dose: 13.3 mg/kg/injection, schedule: Q04DX003 (sc), vehicle: saline) is 67 % of control; the T/C (dose: 13.33 mg/kg/injection, schedule: Q04DX003 (ip), vehicle: saline) was 101 % of control and 120 % of control. Moreover, the T/C runs as follows: (dose: 13.33 mg/kg/injection, schedule: Q04DX003 (sc), vehicle: saline) 45 % of control; (dose: 16.0 mg/kg/injection, schedule: Q01DX010 (ip), vehicle: saline) 49 % of control; (dose: 16.0 mg/kg/injection, schedule: Q04DX003 (sc), vehicle: saline) 46 % of control; (dose: 25.0 mg/kg/injection, schedule: Q04DX003 (sc), vehicle: saline) 50 % of control; (dose: 26.65 mg/kg/injection, schedule: Q04DX003 (ip), vehicle: saline) 71 % of control; (dose: 26.66 mg/kg/injection, schedule: Q04DX003 (ip), vehicle: saline) 89 % of control. The T/C (dose: 32.0 mg/kg/injection, schedule: Q01DX010 (ip), vehicle: saline) was 53 % of control; the T/C (dose: 32.0 mg/kg/injection, schedule: Q04DX003 (sc), vehicle: saline) is 15 % of control; the T/C under setting [1] was 80 % of control; the T/C (dose: 50.0 mg/kg/injection, schedule: Q04DX003 (sc), vehicle: saline) is 46 % of control; the T/C (dose: 53.3 mg/kg/injection, schedule: Q04DX003 (ip), vehicle: saline) is 63 % of control; the T/C (dose: 53.3 mg/kg/injection, schedule: Q04DX003 (sc), vehicle: saline) is 49 % of control. For the same compound, the T/C (dose: 53.33 mg/kg/injection, schedule: Q04DX003 (ip), vehicle: saline) was 59 % of control; the T/C (dose: 53.33 mg/kg/injection, schedule: Q04DX003 (sc), vehicle: saline) is 106 % of control; the T/C under setting [2] is 30 % of control; the T/C (dose: 106.6 mg/kg/injection, schedule: Q04DX003 (ip), vehicle: saline) is 88 % of control; the T/C (dose: 106.6 mg/kg/injection, schedule: Q04DX003 (sc), vehicle: saline) is 51 % of control; the T/C (dose: 106.66 mg/kg/injection, schedule: Q04DX003 (sc), vehicle: saline) is 64 % of control. Under setting [3], the T/C is 17 % of control.
Consider `CSc1ccc2c(c1)C(N1CCN(C)CC1)Cc1ccccc1S2` (stereo not given), for which the T/C is, setting by setting: (dose: 12.5 mg/kg/injection, schedule: Q04DX003 (sc), vehicle: other) 50 % of control; (dose: 25.0 mg/kg/injection, schedule: Q04DX003 (sc), vehicle: other) 23 % of control; (dose: 100.0 mg/kg/injection, schedule: Q04DX003 (sc), vehicle: other) 42 % of control.
In the case of `N=c1nc2n(cc1F)[C@@H]1O[C@H](CO)[C@@H](O)[C@@H]1O2`, the T/C reads like this: under setting [4], 104 % of control; under setting [5], 89 % of control; (dose: 1200.0 mg/kg/injection, schedule: Q04DX003 (sc), vehicle: suspension in saline) 117 % of control.
As for `CC(=O)OCC1OC(n2ncc(=O)[nH]c2=O)C(OC(C)=O)C1OC(C)=O` (stereo not given), the T/C was 67 % of control (dose: 150.0 mg/kg/injection, schedule: Q04DX003 (sc), vehicle: suspension in saline); 112 % of control under setting [4]; 78 % of control under setting [5].
For the compound `CCN(CC)CCOC(=O)Cc1cccc2c(=O)cc(-c3ccccc3)oc12`, the T/C reads like this: (dose: 100.0 mg/kg/injection, schedule: Q04DX003 (sc), vehicle: saline with Tween-80) 107 % of control; (dose: 200.0 mg/kg/injection, schedule: Q04DX003 (sc), vehicle: saline with Tween-80) 102 % of control.
`C=C(OP(=O)(OC)OC)Sc1ccccc1C`: the T/C (dose: 0.2 mg/kg/injection, schedule: Q04DX003 (sc), vehicle: Klucel (hydroxypropylcellulose) (HPC)) was 65 % of control and the T/C (dose: 0.4 mg/kg/injection, schedule: Q04DX003 (sc), vehicle: Klucel (hydroxypropylcellulose) (HPC)) is 67 % of control.
Turning to `CCCCCCCCSC1=C(Cl)C(=O)C(OC)=C(OC)C1=O`, the T/C is, setting by setting: (dose: 36.0 mg/kg/injection, schedule: Q04DX003 (sc), vehicle: saline with Tween-80) 113 % of control; (dose: 72.0 mg/kg/injection, schedule: Q04DX003 (sc), vehicle: saline with Tween-80) 109 % of control; (dose: 144.0 mg/kg/injection, schedule: Q04DX003 (sc), vehicle: saline with Tween-80) 90 % of control.
Turning to `NC(=O)/C=C/c1c[nH]c2nccnc12`, the T/C runs as follows: (dose: 25.0 mg/kg/injection, schedule: Q04DX003 (sc), vehicle: water) 98 % of control; (dose: 50.0 mg/kg/injection, schedule: Q04DX003 (sc), vehicle: water) 46 % of control.
Turning to `CC(=O)N(C)C`, the T/C (dose: 168.75 mg/kg/injection, schedule: Q04DX003 (sc), vehicle: saline) was 81 % of control; the T/C (dose: 337.5 mg/kg/injection, schedule: Q04DX003 (sc), vehicle: saline) is 100 % of control; the T/C (dose: 675.0 mg/kg/injection, schedule: Q04DX003 (sc), vehicle: saline) was 85 % of control; the T/C (dose: 1350.0 mg/kg/injection, schedule: Q04DX003 (sc), vehicle: saline) is 61 % of control.
`S=c1[nH]cc2cnccn12`: the T/C was 104 % of control (dose: 300.0 mg/kg/injection, schedule: Q04DX003 (sc), vehicle: saline with Tween-80); 97 % of control (dose: 600.0 mg/kg/injection, schedule: Q04DX003 (sc), vehicle: saline with Tween-80); 106 % of control (dose: 1200.0 mg/kg/injection, schedule: Q04DX003 (sc), vehicle: saline with Tween-80).
As for `CNC(=O)OCc1c(COC(=O)NC)c(C)n(-c2ccc(OC)cc2)c1C`, the T/C (dose: 50.0 mg/kg/injection, schedule: Q01DX010 (sc), vehicle: Klucel (hydroxypropylcellulose) (HPC)) was 41 % of control; the T/C (dose: 50.0 mg/kg/injection, schedule: Q04DX003 (sc), vehicle: Klucel (hydroxypropylcellulose) (HPC)) was 110 % of control; the T/C (dose: 100.0 mg/kg/injection, schedule: Q01DX010 (sc), vehicle: Klucel (hydroxypropylcellulose) (HPC)) was 9 % of control; the T/C (dose: 100.0 mg/kg/injection, schedule: Q04DX003 (sc), vehicle: Klucel (hydroxypropylcellulose) (HPC)) is 46 % of control; the T/C (dose: 200.0 mg/kg/injection, schedule: Q01DX010 (sc), vehicle: Klucel (hydroxypropylcellulose) (HPC)) was -52 % of control; the T/C (dose: 400.0 mg/kg/injection, schedule: Q01DX010 (sc), vehicle: Klucel (hydroxypropylcellulose) (HPC)) was -61 % of control. For the same compound, the T/C is -100 % of control (dose: 800.0 mg/kg/injection, schedule: Q04DX003 (sc), vehicle: Klucel (hydroxypropylcellulose) (HPC)) and -100 % of control (dose: 1600.0 mg/kg/injection, schedule: Q04DX003 (sc), vehicle: Klucel (hydroxypropylcellulose) (HPC)).
For the compound `N=C(N)Sc1cc(O)ccc1O`, the T/C is, setting by setting: under setting [1], 96 % of control; under setting [2], 106 % of control; under setting [3], 79 % of control; (dose: 300.0 mg/kg/injection, schedule: Q04DX003 (sc), vehicle: saline) 90 % of control.
In the case of `C=C[Si]12OCCN(CCO1)CCO2`, the T/C runs as follows: under setting [6], 87 % of control; under setting [7], 79 % of control; under setting [8], 106 % of control; under setting [9], 89 % of control.
The like results for `COc1cc(C)c(C2NC(=O)c3ccccc3N2)cc1C` (stereo not given) were, in that order, 53 % of control, 115 % of control, 93 % of control and 90 % of control.
